Columns and labels:
Experiment in all cases: relative viability (nuclei count vs DMSO), 5 days (fraction); higher = more cells survive
Tozasertib + Bortezomib = compound: Cc1cc(Nc2cc(N3CCN(C)CC3)nc(Sc3ccc(NC(=O)C4CC4)cc3)n2)n[nH]1 [Tozasertib] + CC(C)C[C@H](NC(=O)[C@H](Cc1ccccc1)NC(=O)c1cnccn1)B(O)O [Bortezomib] (partner 0.002 µM)
Method in brief: (§1)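 Lung cancer cell lines were pin-tool dosed in 1536-well plates on the day after seeding, with either a lone drug or a fixed anchor-drug dose plus five library-drug doses (not always all listed) in √10 steps. Nuclei were counted on 4× images after 5 days. Relative viability is the ratio of treated-well to vehicle-well nuclei counts, with each value a median of duplicate plates.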

Tozasertib + Palbociclib = compound: Cc1cc(Nc2cc(N3CCN(C)CC3)nc(Sc3ccc(NC(=O)C4CC4)cc3)n2)n[nH]1 [Tozasertib] + CC(=O)c1c(C)c2cnc(Nc3ccc(N4CCNCC4)cn3)nc2n(C2CCCC2)c1=O [Palbociclib] (partner 0.5 µM)
Method in brief: as §1

Tozasertib + Pictilisib = compound: Cc1cc(Nc2cc(N3CCN(C)CC3)nc(Sc3ccc(NC(=O)C4CC4)cc3)n2)n[nH]1 [Tozasertib] + CS(=O)(=O)N1CCN(Cc2cc3nc(-c4cccc5[nH]ncc45)nc(N4CCOCC4)c3s2)CC1 [Pictilisib] (partner 1 µM)
Method in brief: as §1

Tozasertib + Foretinib = compound: Cc1cc(Nc2cc(N3CCN(C)CC3)nc(Sc3ccc(NC(=O)C4CC4)cc3)n2)n[nH]1 [Tozasertib] + COc1cc2c(Oc3ccc(NC(=O)C4(C(=O)Nc5ccc(F)cc5)CC4)cc3F)ccnc2cc1OCCCN1CCOCC1 [Foretinib] (partner 0.25 µM)
Method in brief: as §1

Tozasertib + Phenformin = compound: Cc1cc(Nc2cc(N3CCN(C)CC3)nc(Sc3ccc(NC(=O)C4CC4)cc3)n2)n[nH]1 [Tozasertib] + N=C(N)NC(=N)NCCc1ccccc1 [Phenformin] (partner 250 µM)
Method in brief: as §1

Cell Line	relative viability (Tozasertib + Bortezomib; first compound 0.004 µM)	relative viability (Tozasertib + Bortezomib; first compound 0.01265 µM)	relative viability (Tozasertib + Bortezomib; first compound 0.04 µM)	relative viability (Tozasertib + Bortezomib; first compound 0.1265 µM)	relative viability (Tozasertib + Palbociclib; first compound 0.004 µM)	relative viability (Tozasertib + Palbociclib; first compound 0.01265 µM)	relative viability (Tozasertib + Palbociclib; first compound 0.04 µM)	relative viability (Tozasertib + Palbociclib; first compound 0.1265 µM)	relative viability (Tozasertib + Pictilisib; first compound 0.004 µM)	relative viability (Tozasertib + Pictilisib; first compound 0.01265 µM)	relative viability (Tozasertib + Pictilisib; first compound 0.04 µM)	relative viability (Tozasertib + Pictilisib; first compound 0.1265 µM)	relative viability (Tozasertib + Foretinib; first compound 0.004 µM)	relative viability (Tozasertib + Foretinib; first compound 0.01265 µM)	relative viability (Tozasertib + Foretinib; first compound 0.04 µM)	relative viability (Tozasertib + Foretinib; first compound 0.1265 µM)	relative viability (Tozasertib + Phenformin; first compound 0.004 µM)	relative viability (Tozasertib + Phenformin; first compound 0.01265 µM)	relative viability (Tozasertib + Phenformin; first compound 0.04 µM)	relative viability (Tozasertib + Phenformin; first compound 0.1265 µM)
BEN	1.01	0.79	0.925	0.571	0.455	0.475	0.481	0.432	0.56	0.575	0.66	0.456	1.02	0.463	0.678	0.493	0.277	0.253	0.296	0.252
NCI-H727	1.07	1.04	1.02	0.53	0.554	0.573	0.629	0.563	0.357	0.354	0.391	0.299	1.02	0.984	0.958	0.689	0.588	0.466	0.537	0.375
NCI-H1650	0.202	0.207	0.24	0.2	0.328	0.287	0.365	0.207	0.589	0.557	0.639	0.204	1.26	1.28	1.1	0.879	0.47	0.38	0.595	0.199
EPLC-272H	0.774	0.804	0.775		0.367	0.313	0.318	0.356	0.442	0.31	0.326		0.643	0.595	0.604	0.496	0.307	0.337	0.256	0.275
NCI-H2087	0.83	0.787	0.78	0.723	0.248	0.204	0.231	0.128	0.928	0.885	0.933	0.714	1.16	0.796	1.15	0.613	0.487	0.443	0.539	0.344
NCI-H1666	0.772	0.748		0.434	0.644	0.62	0.663	0.612	0.455	0.412	0.586	0.305	0.978	0.879	0.97	0.762	0.605	0.558	0.562	0.464
NCI-H2126	1.12	1.1	1.22	1.14	0.354	0.405	0.372	0.339	0.505	0.529	0.532	0.426	1.19	1.24	1.29	1.12	0.604	0.562	0.467	0.51
NCI-H322M	0.993	1.12	1.39	1.23		0.515	0.466	0.486	0.485	0.474	0.576	0.419		0.941	1.02	0.47	0.798		0.799	0.481

From the supplement of paper PMC10307832
